# Test results from patent US20120101095A1, “ALKOXY-THIENOPYRIMIDINES AS TGF-BETA RECEPTOR KINASE MODULATORS” (priority 2009, published 2012).
# Molecular target: T1, GST-ALK5 (Homo sapiens, UniProt P36897)
# T1 sequence (P36897 34-503): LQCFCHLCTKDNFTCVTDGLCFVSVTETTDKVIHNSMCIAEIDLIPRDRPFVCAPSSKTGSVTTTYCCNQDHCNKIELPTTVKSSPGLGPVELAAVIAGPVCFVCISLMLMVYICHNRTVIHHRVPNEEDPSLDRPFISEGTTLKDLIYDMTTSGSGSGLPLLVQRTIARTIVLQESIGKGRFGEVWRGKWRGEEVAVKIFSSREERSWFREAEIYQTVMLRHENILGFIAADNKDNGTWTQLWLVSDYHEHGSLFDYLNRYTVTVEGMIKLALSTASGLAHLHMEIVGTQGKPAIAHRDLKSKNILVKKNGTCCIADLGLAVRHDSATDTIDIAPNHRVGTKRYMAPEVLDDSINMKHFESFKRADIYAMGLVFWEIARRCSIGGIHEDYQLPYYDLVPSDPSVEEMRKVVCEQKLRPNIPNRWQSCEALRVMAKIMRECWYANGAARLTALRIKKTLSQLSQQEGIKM
# Assay: In-vitro (enzyme) kinase assay, 384-well flashplate, GST-SMAD2 substrate
# Type: biochemical
# Conditions: 31.2 nM GST-ALK5, 439 nM GST-SMAD2, 3 mM ATP, 30° C., 45 min
# Procedure: In-Vitro (Enzyme) Assay for Determination of the Efficacy of Inhibitors of the Inhibition of TGF-Beta-Mediated Effects
# The kinase assay was carried out as 384-well flashplate assay. 31.2 nM of GST-ALK5, 439 nM of GST-SMAD2 and 3 mM of ATP (with 0.3 μCi of ^33P-ATP/well) were incubated in a total volume of 35 μl (20 mM of HEPES, 10 mM of MgCl2, 5 mM of MnCl2, 1 mM of DTT, 0.1% of BSA, pH 7.4) without or with test substance (5-10 concentrations) at 30° C. for 45 min. The reaction was stopped using 25 μl of 200 mM EDTA solution, filtered with suction at room temperature after 30 min, and the wells were washed with 3 times 100 μl of 0.9% NaCl solution. Radioactivity was measured in the TopCount. The IC50 values were calculated using RS1 (Table 1). Above and below, all temperatures were indicated in ° C.
row,IC50,SMILES
1,> 1000 nM,"NC(=O)c1sc2nc(OCC3CCC3)nc(-c3cccc(C(F)(F)F)c3)c2c1N [No 10, 5-Amino-2-cyclobutylmethoxy-4-(3-trifluoromethyl-phenyl)-thieno[2,3-d]pyrimidine-6-carboxylic acid amide]"
2,500 to 1000 nM,"COCCOc1nc(-c2cccc(C(F)(F)F)c2)c2c(N)c(C(N)=O)sc2n1 [No 16, 5-Amino-2-(2-methoxy-ethoxy)-4-(3-trifluoromethyl-phenyl)-thieno[2,3-d]pyrimidine-6-carboxylic acid amide]"
3,< 100 nM,"Cc1cccc(-c2nc(OCCCn3cccn3)nc3sc(C(N)=O)c(N)c23)n1 [No 49, 5-Amino-4-(6-methyl-pyridin-2-yl)-2-(3-pyrazol-1-yl-propoxy)-thieno[2,3-d]pyrimidine-6-carboxylic acid amide]"
4,100 to 500 nM,"Cc1cccc(-c2nc(OCCN3CCCC3=O)nc3sc(C(N)=O)c(N)c23)n1 [No 53, 5-Amino-4-(6-methyl-pyridin-2-yl)-2-[2-(2-oxo-pyrrolidin-1-yl)-ethoxy]-thieno[2,3-d]pyrimidine-6-carboxylic acid amide]"
5,< 100 nM,"N#CCCOc1nc(-c2cccc(Cl)c2)c2c(N)c(C(N)=O)sc2n1 [No 72, 5-Amino-4-(3-chloro-phenyl)-2-(2-cyano-ethoxy)-thieno[2,3-d]pyrimidine-6-carboxylic acid amide]"
6,100 to 500 nM,"NC(=O)c1sc2nc(OCC3CCCO3)nc(-c3cccc(Cl)c3)c2c1N (stereo not drawn) [No 73, 5-Amino-4-(3-chloro-phenyl)-2-(tetrahydro-furan-2-ylmethoxy)-thieno[2,3-d]pyrimidine-6-carboxylic acid amide]"
7,100 to 500 nM,"Cc1ccc(-c2nc(OCCCn3cccn3)nc3sc(C(N)=O)c(N)c23)o1 [No 39, 5-Amino-4-(5-methyl-furan-2-yl)-2-(3-pyrazol-1-yl-propoxy)-thieno[2,3-d]pyrimidine-6-carboxylic acid amide]"
8,100 to 500 nM,"NC(=O)c1sc2nc(OC[C@@H](O)CO)nc(-c3cccc(Cl)c3)c2c1N [No 18, 5-Amino-4-(3-chloro-phenyl)-2-((S)-2,3-dihydroxy-propoxy)-thieno[2,3-d]pyrimidine-6-carboxylic acid amide]"
9,> 1000 nM,"NC(=O)c1sc2nc(OC[C@@H]3CCCN3)nc(-c3cccc(Cl)c3)c2c1N [No 76, 5-Amino-4-(3-chloro-phenyl)-2-((S)-1-pyrrolidin-2-ylmethoxy)-thieno[2,3-d]pyrimidine-6-carboxylic acid amide]"
10,< 100 nM,"COc1nc(-c2cccc(C)n2)c2c(N)c(C(N)=O)sc2n1 [No 25, 5-Amino-2-methoxy-4-(6-methyl-pyridin-2-yl)-thieno[2,3-d]pyrimidine-6-carboxylic acid amide]"
11,< 100 nM,"COc1nc(-c2cccc(Cl)c2)c2c(N)c(C(N)=O)sc2n1 [No 6, 5-Amino-4-(3-chloro-phenyl)-2-methoxy-thieno[2,3-d]pyrimidine-6-carboxylic acid amide]"
12,100 to 500 nM,"Cc1ccc(-c2nc(OCCn3cccn3)nc3sc(C(N)=O)c(N)c23)o1 [No 29, 5-Amino-4-(5-methyl-furan-2-yl)-2-(2-pyrazol-1-yl-ethoxy)-thieno[2,3-d]pyrimidine-6-carboxylic acid amide]"
13,< 100 nM,"NC(=O)c1sc2nc(OCC#CCO)nc(-c3cccc(Cl)c3)c2c1N [No 59, 5-Amino-4-(3-chloro-phenyl)-2-(4-hydroxy-but-2-ynyloxy)-thieno[2,3-d]pyrimidine-6-carboxylic acid amide]"
14,100 to 500 nM,"Cc1ccc(-c2nc(OCc3ccn(C)n3)nc3sc(C(N)=O)c(N)c23)o1 [No 32, 5-Amino-4-(5-methyl-furan-2-yl)-2-(1-methyl-1H-pyrazol-3-ylmethoxy)-thieno[2,3-d]pyrimidine-6-carboxylic acid amide]"
15,< 100 nM,"Cc1cccc(-c2nc(OCc3ccn(C)n3)nc3sc(C(N)=O)c(N)c23)n1 [No 28, 5-Amino-2-(1-methyl-1H-pyrazol-3-ylmethoxy)-4-(6-methyl-pyridin-2-yl)-thieno[2,3-d]pyrimidine-6-carboxylic acid amide]"
16,100 to 500 nM,"NC(=O)c1sc2nc(OCC3(CO)CC3)nc(-c3cccc(Cl)c3)c2c1N [No 65, 5-Amino-4-(3-chloro-phenyl)-2-(1-hydroxymethyl-cyclopropylmethoxy)-thieno[2,3-d]pyrimidine-6-carboxylic acid amide]"
17,100 to 500 nM,"Cc1ccc(-c2nc(OCCO)nc3sc(C(N)=O)c(N)c23)o1 [No 21, 5-Amino-2-(2-hydroxy-ethoxy)-4-(5-methyl-furan-2-yl)-thieno[2,3-d]pyrimidine-6-carboxylic acid amide]"
18,100 to 500 nM,"NC(=O)c1sc2nc(OCCO)nc(-c3cccc(Cl)c3)c2c1N [No 13, 5-Amino-4-(3-chloro-phenyl)-2-(2-hydroxy-ethoxy)-thieno[2,3-d]pyrimidine-6-carboxylic acid amide]"
19,100 to 500 nM,"C=C(C)CCOc1nc(-c2cccc(C(F)(F)F)c2)c2c(N)c(C(N)=O)sc2n1 [No 17, 5-Amino-2-(3-methyl-but-3-enyloxy)-4-(3-trifluoromethyl-phenyl)-thieno[2,3-d]pyrimidine-6-carboxylic acid amide]"
20,100 to 500 nM,"NC(=O)c1sc2nc(OCCN3CCNC3=O)nc(-c3cccc(Cl)c3)c2c1N [No 61, 5-Amino-4-(3-chloro-phenyl)-2-[2-(2-oxo-imidazolidin-1-yl)-ethoxy]-thieno[2,3-d]pyrimidine-6-carboxylic acid amide]"
21,< 100 nM,"Cc1cccc(-c2nc(OCCO)nc3sc(C(N)=O)c(N)c23)n1 [No 26, 5-Amino-2-(2-hydroxy-ethoxy)-4-(6-methyl-pyridin-2-yl)-thieno[2,3-d]pyrimidine-6-carboxylic acid amide]"
22,500 to 1000 nM,"NC(=O)c1sc2nc(OCC3CCCC3)nc(-c3cccc(Cl)c3)c2c1N [No 7, 5-Amino-4-(3-chloro-phenyl)-2-cyclopentylmethoxy-thieno[2,3-d]pyrimidine-6-carboxylic acid amide]"
23,100 to 500 nM,"NC(=O)CCCOc1nc(-c2cccc(Cl)c2)c2c(N)c(C(N)=O)sc2n1 [No 69, 5-Amino-2-(3-carbamoyl-propoxy)-4-(3-chloro-phenyl)-thieno[2,3-d]pyrimidine-6-carboxylic acid amide]"
24,100 to 500 nM,"CNC(=O)CCCOc1nc(-c2cccc(Cl)c2)c2c(N)c(C(N)=O)sc2n1 [No 70, 5-Amino-4-(3-chloro-phenyl)-2-(3-methylcarbamoyl-propoxy)-thieno[2,3-d]pyrimidine-6-carboxylic acid amide]"

row,SMILES,IC50
1,"CC(C)(C)OCCOc1nc(-c2cccc(C(F)(F)F)c2)c2c(N)c(C(N)=O)sc2n1 [No 12, 5-Amino-2-(2-tert-butoxy-ethoxy)-4-(3-trifluoromethyl-phenyl)-thieno[2,3-d]pyrimidine-6-carboxylic acid amide]",500 to 1000 nM
2,"NC(=O)c1sc2nc(OCCCCC3NC(=O)NC3=O)nc(-c3cccc(Cl)c3)c2c1N (stereo not drawn) [No 78, 5-Amino-4-(3-chloro-phenyl)-2-[4-(2,5-dioxo-imidazolidin-4-yl)-butoxy]-thieno[2,3-d]pyrimidine-6-carboxylic acid amide]",< 100 nM
3,"NC(=O)c1sc2nc(OCCC(O)CO)nc(-c3cccc(Cl)c3)c2c1N (stereo not drawn) [No 62, 5-Amino-4-(3-chloro-phenyl)-2-(3,4-dihydroxy-butoxy)-thieno[2,3-d]pyrimidine-6-carboxylic acid amide]",< 100 nM
